ChEMBL document CHEMBL5032531, “Hypocholesterolemic Efficacy of Secoisolariciresinol Diglucoside and Its Polymer in Rat” (J Nat Prod, 2021)

Key:
Rattus norvegicus [1] = test: Hypocholesterolemic activity in Wistar rat model with high cholesterol diet assessed as reduction in liver NAFLD activity score at 6 mg/kg, po qd measured after 23 days by H and E staining assay; format: functional; conditions: time 23 day
Rattus norvegicus [2] = test: Effect on liver weight in Wistar rat model with high cholesterol diet at 6 mg/kg, po qd measured after 23 days; format: ADME, organism-based; conditions: in vivo, 552 h, time 23 day
Rattus norvegicus [3] = test: Hypocholesterolemic activity in Wistar rat model with high cholesterol diet assessed as liver NAFLD activity score at 6 mg/kg, po qd measured after 23 days by H and E staining assay relative to control; format: functional; conditions: time 23 day
Rattus norvegicus [4] = test: Hypocholesterolemic activity in Wistar rat model with high cholesterol diet assessed as amount of Total cholesterol in serum at 6 mg/kg, po qd measured after 23 days by microplate reader assay relative to control; format: functional; conditions: time 23 day
Rattus norvegicus [5] = test: Effect on Wistar rat model with high cholesterol diet assessed as ratio of liver weight to body weight at 6 mg/kg, po qd measured after 23 days; format: ADME, organism-based; conditions: in vivo, 552 h, time 23 day
Rattus norvegicus [6] = test: Effect on body weight in Wistar rat model with high cholesterol diet at 6 mg/kg, po qd measured after 23 days; format: ADME, organism-based; conditions: in vivo, 552 h, time 23 day
Rattus norvegicus [7] = test: Hypocholesterolemic activity in Wistar rat model with high cholesterol diet assessed as reduction of steatosis at 6 mg/kg, po qd measured after 23 days by H and E staining assay relative to control; format: functional; design: scale not given: the % may be the effect or the level left; conditions: time 23 day
Rattus norvegicus [8] = test: Effect on body weight gain in Wistar rat model with high cholesterol diet at 6 mg/kg, po qd measured after 23 days relative to control; format: ADME, organism-based; conditions: in vivo, 552 h, time 23 day
Rattus norvegicus [9] = test: Hypocholesterolemic activity in Wistar rat model with high cholesterol diet assessed as reduction of steatosis at 6 mg/kg, po qd measured after 23 days by H and E staining assay; format: functional; conditions: time 23 day
Rattus norvegicus [10] = test: Hypocholesterolemic activity in Wistar rat model with high cholesterol diet assessed as amount of LDL-C in serum at 6 mg/kg, po qd measured after 23 days by microplate reader assay relative to control; format: functional; conditions: time 23 day
Rattus norvegicus [11] = test: Hypocholesterolemic activity in Wistar rat model with high cholesterol diet assessed as reduction in liver lobular inflammation at 6 mg/kg, po qd measured after 23 days by H and E staining assay; format: functional; conditions: time 23 day
Rattus norvegicus [12] = test: Hypocholesterolemic activity in Wistar rat model with high cholesterol diet assessed as amount of Triglycerides in serum at 6 mg/kg, po qd measured after 23 days by microplate reader assay relative to control; format: functional; conditions: time 23 day
Rattus norvegicus [13] = test: Hypocholesterolemic activity in Wistar rat model with high cholesterol diet assessed as amount of HDL-C in serum at 6 mg/kg, po qd measured after 23 days by microplate reader assay relative to control; format: functional; conditions: time 23 day

Activity (Rattus norvegicus [2]): 10.4 g
SMILES: COc1cc(C[C@H](CO[C@@H]2O[C@H](CO)[C@@H](O)[C@H](O)[C@H]2O)[C@@H](CO[C@@H]2O[C@H](CO)[C@@H](O)[C@H](O)[C@H]2O)Cc2ccc(O)c(OC)c2)ccc1O [(+)-SECOISOLARICIRESINOLDIGLUCOSIDE]
Activity (Rattus norvegicus [1]): 2.4
Activity (Rattus norvegicus [3]): 14.3%
Activity (Rattus norvegicus [4]): 10%
Activity (Rattus norvegicus [5]): 31.5 g/kg
Activity (Rattus norvegicus [6]): 330 g
Activity (Rattus norvegicus [7]): 22.2%
Activity (Rattus norvegicus [8]): 32%
Activity (Rattus norvegicus [9]): 1.4
Activity (Rattus norvegicus [10]): 14%
Activity (Rattus norvegicus [11]): 1
Activity (Rattus norvegicus [12]): 15%
Activity (Rattus norvegicus [13]): 24%
